Measured values taken from article PMC3478562 (Biochemical pharmacology, 2011).
Converted amounts (≈) assume the structure as drawn.

Key:
[1] = tested on: Streptococcus pyogenes 712; assay: Antimicrobial activity spectrum MIC; format: cell-based
[2] = tested on: Staphylococcus epidermidis 831; assay: Antimicrobial activity spectrum MIC; format: cell-based
[3] = tested on: Pseudomonas aeruginosa 1380; assay: Antimicrobial activity spectrum MIC; format: cell-based
Enterococcus faecium 800 = assay: Antimicrobial activity spectrum MIC; format: cell-based
[4] = tested on: Escherichia coli 120 (acrAB efflux pump deletion); assay: microbe, parasite or virus in culture; format: cell-based
Proteus mirabilis 1360 = assay: Antimicrobial activity spectrum MIC; format: cell-based
[5] = tested on: Klebsiella pneumoniae 1339; assay: Antimicrobial activity spectrum MIC; format: cell-based
Escherichia coli 102 = assay: Antimicrobial activity spectrum MIC; format: cell-based
[6] = tested on: Streptococcus pneumoniae 1195; assay: Antimicrobial activity spectrum MIC; format: cell-based
[7] = tested on: Enterococcus faecalis 101; assay: Antimicrobial activity spectrum MIC; format: cell-based
Alr [8] = target: T1, Alr (Staphylococcus aureus, UniProt Q6GF03); assay: Inhibitor reversibility: pre-incubation and dialysis; format: biochemical; conditions: pre-incubated 30 minutes, dialyzed for 16 hours
Aspergillus niger 624 = assay: Antimicrobial activity spectrum MIC; format: cell-based
Candida albicans 2000 = assay: Antimicrobial activity spectrum MIC; format: cell-based
Alr [9] = target: T1, Alr; assay: Inhibitor reversibility: IC50 after pre-incubation with the enzyme; format: biochemical; conditions: pre-incubation 30 minutes vs 6 hours (16 hours)
S. aureus N315 = assay: MIC in wild type and Alr overexpressing strains; conditions: Staphylococcus aureus
[10] = tested on: Staphylococcus aureus 328; assay: S. aureus MIC, broth microdilution
[11] = tested on: Staphylococcus aureus HFH-30522; assay: S. aureus MIC, broth microdilution; conditions: HFH30522
[12] = tested on: Staphylococcus aureus PCI 124; assay: S. aureus MIC, broth microdilution; conditions: PCI124
[13] = tested on: Staphylococcus aureus HFH-30032; assay: S. aureus MIC, broth microdilution; conditions: HFH30032
[14] = tested on: S. aureus USA300-alr (Alr overexpressing); assay: MIC in wild type and Alr overexpressing strains; conditions: Staphylococcus aureus
[15] = tested on: Staphylococcus aureus HFH-29568; assay: S. aureus MIC, broth microdilution; conditions: HFH29568
[16] = tested on: Staphylococcus aureus PCI 1158; assay: S. aureus MIC, broth microdilution; conditions: PCI1158
[17] = tested on: Staphylococcus aureus HFH-30364; assay: S. aureus MIC, broth microdilution; conditions: HFH30364
S. aureus USA 300 = assay: MIC in wild type and Alr overexpressing strains; conditions: Staphylococcus aureus, USA300
[18] = tested on: Staphylococcus aureus FDA 209; assay: S. aureus MIC, broth microdilution; conditions: FDA209
[19] = tested on: S. aureus N315-alr (Alr overexpressing); assay: MIC in wild type and Alr overexpressing strains; conditions: Staphylococcus aureus

T1 sequence (Q6GF03 whole entry): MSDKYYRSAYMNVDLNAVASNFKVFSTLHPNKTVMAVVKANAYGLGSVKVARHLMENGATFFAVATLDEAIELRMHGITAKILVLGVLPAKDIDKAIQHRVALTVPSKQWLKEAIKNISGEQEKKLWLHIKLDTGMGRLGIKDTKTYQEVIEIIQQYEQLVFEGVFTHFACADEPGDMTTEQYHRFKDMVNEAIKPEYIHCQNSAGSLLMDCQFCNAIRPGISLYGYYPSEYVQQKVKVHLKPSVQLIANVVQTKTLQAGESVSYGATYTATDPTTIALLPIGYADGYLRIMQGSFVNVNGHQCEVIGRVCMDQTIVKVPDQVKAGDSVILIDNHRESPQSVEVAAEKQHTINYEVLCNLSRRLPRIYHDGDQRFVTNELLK

**Q.** With `C[C@@H]1[C@H](O)[C@@H](C)/C=C/C=C/C=C/C=C/C=C/C=C/C=C/[C@H](O[C@@H]2O[C@H](C)[C@@H](O)[C@H](N)[C@@H]2O)C[C@@H]2O[C@](O)(C[C@@H](O)C[C@@H](O)[C@H](O)CC[C@@H](O)C[C@@H](O)CC(=O)O[C@H]1C)C[C@H](O)[C@H]2C(=O)O` [AMPB, Amphotericin B] as the compound, how does the MIC [1] read?
**A.** Its MIC is over 64 µg/mL.

**Q.** And the MIC [2]?
**A.** The MIC was over 64 µg/mL.

**Q.** And the MIC [3]?
**A.** Its MIC is over 64 µg/mL.

**Q.** What about the MIC (Enterococcus faecium 800) of the same compound?
**A.** Its MIC is over 64 µg/mL.

**Q.** And the MIC [4]?
**A.** Its MIC is over 64 µg/mL.

**Q.** And the MIC (Proteus mirabilis 1360)?
**A.** The MIC was over 64 µg/mL.

**Q.** And the MIC [5]?
**A.** Its MIC is over 64 µg/mL.

**Q.** And the MIC (Escherichia coli 102)?
**A.** Its MIC is over 64 µg/mL.

**Q.** What about the MIC [6] of the same compound?
**A.** Its MIC is over 64 µg/mL.

**Q.** And the MIC [7]?
**A.** The MIC was over 64 µg/mL.

**Q.** How did the “recovery of Alr activity after dialysis” value (Alr [8]) turn out when `CCC(=O)[O-].[Na+]` [sodium propionate] was run?
**A.** Its value is “recovery of Alr activity”.

**Q.** What does the source list for `O=C(O)c1cn(C2CC2)c2cc(N3CCNCC3)c(F)cc2c1=O` [Cipro, Ciprofloxacin]?
**A.** MIC (Aspergillus niger 624): > 64 µg/mL; MIC [2]: > 16 µg/mL; MIC (Candida albicans 2000): > 64 µg/mL; MIC (Enterococcus faecium 800): > 16 µg/mL; MIC [6]: 0.5 µg/mL (≈ 1.51 µM)

**Q.** For `CC(=O)OC[C@H](N)C(=O)O` [O-acetyl-L- serine, O-acetyl-L-serine], which “change of IC50 values with longer pre-incubation time” value (Alr [9]) is on record?
**A.** Its value is “no significant reduction in IC50 values”.

**Q.** Which results are given for `N[C@@H]1CON=C1O` [DCS, D-cycloserine]?
**A.** MIC (S. aureus N315): 25 µg/mL (≈ 245 µM); MIC [10]: 12.5 µg/mL (≈ 122 µM); MIC [11]: 12.5 µg/mL (≈ 122 µM); recovery of Alr activity after dialysis (Alr [8]): no increase in activity; MIC [12]: 12.5 µg/mL (≈ 122 µM); change of IC50 values with longer pre-incubation time (Alr [9]): a significant reduction in the IC50 values occurs with longer pre-incubation time; MIC [13]: 12.5 µg/mL (≈ 122 µM); MIC [14]: 25 µg/mL (≈ 245 µM); MIC [15]: 12.5 µg/mL (≈ 122 µM); MIC [16]: 12.5 µg/mL (≈ 122 µM); MIC [17]: 12.5 µg/mL (≈ 122 µM); MIC (S. aureus USA 300): 25 µg/mL (≈ 245 µM); MIC [18]: 12.5 µg/mL (≈ 122 µM); MIC [19]: 25 µg/mL (≈ 245 µM)
